For 20 compounds, IC50 results are on record in patent US20240254114A1, “PREPARATION OF FUSED AZOLE DERIVATIVES AS NOVEL DIACYLGLYCERIDE 0-ACYLTRANSFERASE 2 INHIBITORS” (Merck Sharp & Dohme LLC, priority 2022, published 2024).

The assay has as its target human DGAT2 (Homo sapiens (Human), UniProt Q96PD7). In words: DGAT2 Enzymatic Activity Assay. The following applies: 13C18-triolein product by LC/MS/MS.
The mark [1] stands for this setting: read-out: Human DGAT2 IC50, hDGAT2 membrane prep from Sf-9 cells.
Where [2] appears, read: Human DGAT2 IC50, hDGAT2 membrane prep from Sf-9 cells.

The structures appear in SMILES notation. Where two headings read alike, the source gives them in different places.

Chain of human DGAT2 (Q96PD7 whole entry): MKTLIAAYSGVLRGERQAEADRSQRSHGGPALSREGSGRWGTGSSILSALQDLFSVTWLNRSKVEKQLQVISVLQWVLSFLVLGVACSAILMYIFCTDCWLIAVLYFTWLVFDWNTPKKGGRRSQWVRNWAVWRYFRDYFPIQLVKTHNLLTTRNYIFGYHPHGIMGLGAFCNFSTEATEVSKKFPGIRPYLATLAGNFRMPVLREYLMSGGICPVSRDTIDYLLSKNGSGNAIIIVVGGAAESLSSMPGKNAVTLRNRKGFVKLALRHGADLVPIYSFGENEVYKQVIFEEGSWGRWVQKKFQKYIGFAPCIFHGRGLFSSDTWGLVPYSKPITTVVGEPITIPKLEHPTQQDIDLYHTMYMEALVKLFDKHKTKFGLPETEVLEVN
Protocol: Sf-9 insect cells were maintained in Grace's insect cell culture medium with 10% heated-inactivated fetal bovine serum, 1% Pluronic F-68 and 0.14 μg/ml Kanamycine sulfate at 27° C. in a shaker incubator. After infection with untagged baculovirus expressing human DGAT2 (hDGAT2) at multiplicity of infection (MOI) 3 for 48 hours, cells were harvested. Cell pellets were suspended in buffer containing 10 mM Tris-HCl pH 7.5, 1 mM EDTA, 250 mM sucrose and Complete Protease Inhibitor Cocktail (Sigma Aldrich), and sonicated on ice. Cell debris were removed by centrifugation at 2000×g for 15 minutes. Membrane fractions were isolated by ultracentrifugation (100,000×g), resuspended in the same buffer, and frozen (−80° C.) for later use. The protein concentration was determined with the Pierce™ BCA Protein Assay Kit (Thermo Fisher Scientific).
LC/MS/MS analyses were performed using Thermal Fisher's LX4-TSQ Vantage system. This system consists of an Agilent binary high-performance liquid chromatography (HPLC) pump and a TSQ Vantage triple quadrupole MS/MS instrument. For each sample, 2 μL samples from the top organic layer of in-plate liquid-liquid extraction were injected onto a Thermo Betabasic C4 column (2.1 mm×20 mm, 5 μm particle size). The samples were then eluted using the following conditions; mobile phase: Isopropanol: acetonitrile/10 mM ammonium formate=50/35/15 (v/v/v), flow rate: 0.8 mL/min, temperature: 25° C. Data was acquired in positive mode using a heated electrospray ionization (HESI) interface. […] The peak area was integrated by Xcalibur Quan software. The ratio between the ^13C18 triolein generated in the reaction and spiked in internal standard ^13C21-triolein was used to generate percentage inhibition and IC50 values. […] DGAT2 activity was determined by measuring the amount of enzymatic product ^13C18-triolein (^13C-1,2,3-Tri(cis-9-octadecenoyl)glycerol) using the membrane prep mentioned above. The assay was carried out in ABgene 384-well assay plates in a final volume of 25 μL at rt.

With `Cc1cc2nc(C(=O)NC3(C)CCS(=O)(=O)CC3)n(C)c2nc1Oc1ncc(F)cc1OCC(F)(F)F` [Example 46, 5-((5-fluoro-3-(2,2,2-trifluoroethoxy)pyridin-2-yl)oxy)-3,6-dimethyl-N-(4-methyl-1,1-dioxido-tetrahydro-2H-thiopyran-4-yl)-3H-imidazo[4,5-b]pyridine-2-carboxamide], the IC50 under setting [1] was determined as 6.3 nM.

Consider `CC1(NC(=O)c2nc3ccc(Oc4ncccc4OCC(F)(F)F)cc3s2)CS(=O)(=O)C1` [Example 92, N-(3-methyl-1,1-dioxo-thietan-3-yl)-6-[[3-(2,2,2-trifluoroethoxy)-2-pyridyl]oxy]-1,3-benzothiazole-2-carboxamide], for which the IC50 under setting [1] was found to be 12 nM.

As for `Cn1c(C(=O)NC2(C)CCS(=O)(=O)CC2)nc2ccc(Oc3ncccc3OCC(F)(F)F)nc21` [Example 34, 3-methyl-N-(4-methyl-1,1-dioxidotetrahydro-2H-thiopyran-4-yl)-5-((3-(2,2,2-trifluoroethoxy)pyridin-2-yl)oxy)-3H-imidazo[4,5-b]pyridine-2-carboxamide], the IC50 under setting [1] was over 109 nM.

In turn, `Cn1c(C(=O)NC2(C)CCS(=O)(=O)CC2)nc2cnc(Oc3ncc(Cl)cc3OCC(F)F)cc21` [Example 66, 6-((5-Chloro-3-(2,2-difluoroethoxy)pyridin-2-yl)oxy)-1-methyl-N-(4-methyl-1,1-dioxidotetrahydro-2H-thiopyran-4-yl)-1H-imidazo[4,5-c]pyridine-2-carboxamide] gave an IC50 under setting [2] of 16 nM.

For `Cn1c(C(=O)N[C@H]2CCCC(F)(F)[C@@H]2O)nc2cnc(Oc3ncc(Cl)cc3OCC(F)F)cc21` [Example 75, 6-[[5-chloro-3-(2,2-difluoroethoxy)-2-pyridyl]oxy]-N-[(1S,2R)-3,3-difluoro-2-hydroxy-cyclohexyl]-1-methyl-imidazo[4,5-c]pyridine-2-carboxamide], the IC50 under setting [1] turned out to be 10 nM.

In the case of `CC1(NC(=O)c2nc3ccc(Oc4ncc(Cl)cc4OCC(F)F)nc3n2CC(F)F)CCS(=O)(=O)CC1` [Example 54, 5-((5-chloro-3-(2,2-difluoroethoxy)pyridin-2-yl)oxy)-3-(2,2-difluoroethyl)-N-(4-methyl-1,1-dioxidotetrahydro-2H-thiopyran-4-yl)-3H-imidazo[4,5-b]pyridine-2-carboxamide], the IC50 under setting [1] amounted to 0.6 nM.

Regarding `Cn1c(C(=O)NC2(C)CCS(=O)(=O)CC2)nc2c(F)c(Oc3ncc(Cl)cc3OCC(F)(F)F)ccc21` [Example 22, 5-((5-chloro-3-(2,2,2-trifluoroethoxy)pyridin-2-yl)oxy)-4-fluoro-1-methyl-N-(4-methyl-1,1-dioxidotetrahydro-2H-thiopyran-4-yl)-1H-benzo[d]imidazole-2-carboxamide], under setting [2], the IC50 turned out to be 604 nM.

Under setting [2], `CC1(NC(=O)c2nc3ccc(Oc4ncccc4OCC(F)(F)F)cc3s2)CCS(=O)(=O)CC1` [Example 91, N-(4-Methyl-1,1-dioxidotetrahydro-2H-thiopyran-4-yl)-6-((3-(2,2,2-trifluoroethoxy)pyridin-2-yl)oxy)benzo[d]thiazole-2-carboxamide] had an IC50 of 1.3 nM.

Turning to `CC(C)n1c(C(=O)NC2(C)CCS(=O)(=O)CC2)nc2nc(Oc3ncc(Cl)cc3OCC(F)F)ccc21` [Example 51, 5-((5-chloro-3-(2,2-difluoroethoxy)pyridin-2-yl)oxy)-1-isopropyl-N-(4-methyl-1,1-dioxidotetrahydro-2H-thiopyran-4-yl)-1H-imidazo[4,5-b]pyridine-2-carboxamide], half-maximal inhibition under setting [2] (IC50) required 533 nM.

`Cn1c(C(=O)NC2(C)CS(=O)(=O)C2)nc2cnc(Oc3ncc(F)cc3OCC(F)F)cc21` [Example 71, 6-[[3-(2,2-difluoroethoxy)-5-fluoro-2-pyridyl]oxy]-1-methyl-N-(3-methyl-1,1-dioxo-thietan-3-yl)imidazo[4,5-c]pyridine-2-carboxamide]: the IC50 under setting [1] was found to be 269 nM.

Turning to `CC1(NC(=O)c2nc3ccc(Oc4ncc(Cl)cc4OCC(F)F)nc3s2)CS(=O)(=O)C1` [Example 95], the IC50 under setting [1] is 10 nM.

As for `Cc1c(Oc2ncc(Cl)cc2OCC(F)F)ncc2nc(C(=O)NC3(C)CCS(=O)(=O)CC3)n(C)c12` [Example 78, 6-[[5-Chloro-3-(2,2-difluoroethoxy)-2-pyridyl]oxy]-1,7-dimethyl-N-(4-methyl-1,1-dioxo-thian-4-yl)imidazo[4,5-c]pyridine-2-carboxamide], the 50% inhibitory concentration (IC50) under setting [2] was found to be 3.9 nM.

As for `Cc1c(Oc2ncc(F)cc2OCC(F)(F)F)cnc2nc(C(=O)NC3(C)CCS(=O)(=O)CC3)n(C)c12` [Example 85, 6-[[5-fluoro-3-(2,2,2-trifluoroethoxy)-2-pyridyl]oxy]-1,7-dimethyl-N-(4-methyl-1,1-dioxo-thian-4-yl)imidazo[4,5-b]pyridine-2-carboxamide], the IC50 under setting [1] came to 175 nM.

With `CC1(NC(=O)c2nc3ccc(Oc4ncc(Cl)cc4OCC(F)F)nc3s2)CCS(=O)(=O)CC1` [Example 94, 5-((5-Chloro-3-(2,2-difluoroethoxy)pyridin-2-yl)oxy)-N-(4-methyl-1,1-dioxidotetrahydro-2H-thiopyran-4-yl)thiazolo[5,4-b]pyridine-2-carboxamide], the IC50 under setting [2] was 2 nM.

In the case of `CC(C)n1c(C(=O)NC2(C)CCS(=O)(=O)CC2)nc2ccc(Oc3ncc(Cl)cc3OCC(F)F)nc21` [Example 52, 5-((5-chloro-3-(2,2-difluoroethoxy)pyridin-2-yl)oxy)-3-isopropyl-N-(4-methyl-1,1-dioxidotetrahydro-2H-thiopyran-4-yl)-3H-imidazo[4,5-b]pyridine-2-carboxamide], the 50% inhibitory concentration (IC50) under setting [2] came out at 3.6 nM.

Turning to `Cc1nc2nc(C(=O)NC3(C)CCS(=O)(=O)CC3)n(C)c2cc1Oc1ncc(F)cc1OCC(F)(F)F` [Example 87, 6-[[5-fluoro-3-(2,2,2-trifluoroethoxy)-2-pyridyl]oxy]-1,5-dimethyl-N-(4-methyl-1,1-dioxo-thian-4-yl)imidazo[4,5-b]pyridine-2-carboxamide], the IC50 under setting [1] is 25 nM.

On to `CC1(NC(=O)c2nc3nc(Oc4ncc(Cl)cc4OCC(F)F)ccc3n2CC(F)F)CCS(=O)(=O)CC1` [Example 53, 5-((5-chloro-3-(2,2-difluoroethoxy)pyridin-2-yl)oxy)-1-(2,2-difluoroethyl)-N-(4-methyl-1,1-dioxidotetrahydro-2H-thiopyran-4-yl)-1H-imidazo[4,5-b]pyridine-2-carboxamide], for which, under setting [1], the IC50 is 134 nM.

On to `Cn1c(C(=O)NC2(C)CCS(=O)(=O)CC2)nc2ccc(Oc3ncc(F)cc3OCC(F)F)nc21` [Example 30, 5-((3-(2,2-Difluoroethoxy)-5-fluoropyridin-2-yl)oxy)-3-methyl-N-(4-methyl-1,1-dioxidotetrahydro-2H-thiopyran-4-yl)-3H-imidazo[4,5-b]pyridine-2-carboxamide], for which, under setting [2], inhibition was half-maximal at 1.4 nM (IC50).

In turn, `Cn1c(C(=O)NC2(C)CCS(=O)(=O)CC2)nc2ccc(Oc3ncc(Cl)cc3OCC(F)F)nc21` [Example 28, 5-((5-Chloro-3-(2,2-difluoroethoxy)pyridin-2-yl)oxy)-3-methyl-N-(4-methyl-1,1-dioxidotetrahydro-2H-thiopyran-4-yl)-3H-imidazo[4,5-b]pyridine-2-carboxamide] registered an IC50 under setting [2] of 1.3 nM.

As for `Cn1c(C(=O)NC2(C)CCS(=O)(=O)CC2)nc2cnc(Oc3ncc(Cl)cc3OCC(C)(F)F)cc21` [Example 67, 6-[[5-chloro-3-(2,2-difluoropropoxy)-2-pyridyl]oxy]-1-methyl-N-(4-methyl-1,1-dioxo-thian-4-yl)imidazo[4,5-c]pyridine-2-carboxamide], the IC50 under setting [1] was determined as 24 nM.
